How the values were obtained:
Type in all cases: in vivo
[1] = tested on: Bemisia tabaci SUD-S; experiment: Leaf-dip bioassay, 2nd-instar nymphs, insecticide-susceptible strain SUD-S; settings: nymphs in 2nd stage, mortality 10-12 d
Procedure: Larvale Tauch-Bioassays wurden mit geringfügigen Änderungen gemäß Elbert und Nauen (1996) durchgeführt. Die echten Blätter einer drei Wochen alten Baumwollpflanze wurden alle außer einem entfernt. Das verbleibende Blatt wurde auf eine Größe von ca. 15-20 cm^2 zurechtgeschnitten. Die Pflanzen wurden ohne Verwendung von Clip-Käfigen mit adulten Weißen Fliegen infiziert (ca. 20-30 adulte Tiere pro Blatt für 6-7 h). Die Weißen Fliegen wurden dann entfernt und zum geeigneten Zeitpunkt (gewöhnlich nach 10-12 d wenn die Nymphen im zweiten Stadium vorherrschten) wurden die infizierten Blätter für 5 sec in serielle wässrige Insektizidlösungen (s.o.) getaucht. […] Jedes Insektizid wurde mindestens dreifach mit 2- oder 3-fach Bestimmungen pro Konzentration getestet.
(§1) LC50-Werte wurden aus Probit-Regressionen unter Verwendung des Computerprogramms POLO-PC 2 (LeOra Software, Berkeley, USA) berechnet.
(§2) Tabelle 1. Log-Dosis Probit Mortalitätsdaten für verschiedene Klassen von Insektiziden erhalten aus Blatt-Tauch-Bioassays gegen adulte Tiere zweier Bemisia tabaci Stämme, SUD-S und ESP-00, die bekanntermaßen Insektizid-empfindlich (SUD-S) bzw. multiresistent (ESP-00) sind (Stumpf und Nauen, 2003). Mortalität wurde nach 72 h bestimmt, mit Ausnahme von Buprofezin (10-12 d).

[2] = tested on: Bemisia tabaci ESP-00; experiment: Leaf-dip bioassay, adult whiteflies, multi-resistant strain ESP-00; settings: adults; for ESP-00 LC50: multi-resistant strain ESP-00, mortality after 72 h
From the text: (§3) Es wurden Versuche durchgeführt, um die überlegene Blattwirkung von Enaminocarbonylverbindungen gegen adulte Tiere eines Stamms von Bemisia tabaci zu zeigen, der bekanntermaßen resistent ist gegen Neonikotinoid-Insektizide sowie andere Insektizidklassen, einschließlich Insekten-Wachstumsregulatoren (wie Buprofezin) und Antifeedants (Substanzen, die einen Schaderreger vom Fraß abhalten) (wie Pymetrozin).
(§4) Baumwollblattscheiben (30 mm im Durchmesser) wurden für 5 sec in wässrige Lösungen technischer Insektizide, enthaltend 0,2 g/l Triton-X-100 als nicht-ionisches Benetzungsmittel, getaucht. Luftgetrocknete Blattscheiben wurden dann mit der adaxialen Seite nach unten auf ein Agarbett (12 g/l) in einer kleinen Petrischale (40 mm im Durchmesser) gelegt. Adulte Weiße Fliegen wurden mittels eines Vakuum-getriebenen Aspirators aus Aufzuchtkäfigen eingesammelt und 20 adulte Tiere wurden nach kurzer CO2-Narkose auf die Blattscheiben gelegt. Anschließend wurde jede Petrischale mit einem belüfteten Deckel verschlossen und umgedreht aufbewahrt. Nach 72 h wurde die Mortalität der Weißen Fliegen bestimmt. Jedes Insektizid wurde mindestens dreifach mit 2-oder 3-fach Bestimmungen pro Konzentration getestet.
as §1, §2

[3] = tested on: Bemisia tabaci ESP-00; experiment: Leaf-dip bioassay, 2nd-instar nymphs, multi-resistant strain ESP-00
Procedure: Larvale Tauch-Bioassays wurden mit geringfügigen Änderungen gemäß Elbert und Nauen (1996) durchgeführt. Die echten Blätter einer drei Wochen alten Baumwollpflanze wurden alle außer einem entfernt. Das verbleibende Blatt wurde auf eine Größe von ca. 15-20 cm^2 zurechtgeschnitten. Die Pflanzen wurden ohne Verwendung von Clip-Käfigen mit adulten Weißen Fliegen infiziert (ca. 20-30 adulte Tiere pro Blatt für 6-7 h). Die Weißen Fliegen wurden dann entfernt und zum geeigneten Zeitpunkt (gewöhnlich nach 10-12 d wenn die Nymphen im zweiten Stadium vorherrschten) wurden die infizierten Blätter für 5 sec in serielle wässrige Insektizidlösungen (s.o.) getaucht. Die prozentuale Mortalität wurde an Tag 21-23 bei ca. 24 °C gemessen, sobald alle Überlebenden die Puppenstadien durchschritten hatten. Jedes Insektizid wurde mindestens dreifach mit 2- oder 3-fach Bestimmungen pro Konzentration getestet.
as §1, §2

[4] = tested on: Bemisia tabaci SUD-S; experiment: Leaf-dip bioassay, adult whiteflies, insecticide-susceptible strain SUD-S; settings: adults, mortality after 72 h
From the text: as §3, §4, §1, §2

SMILES	SUD-S LC50 [1] [ppm]	akute Kurzzeiteffekte gegen adulte Tiere von B. tabaci ([2]; strain not specified, result in words)	Kreuzresistenz von Nymphen im zweiten Stadium des Stamms ESP-00 ([3]; 2nd-stage nymphs, result in words)	ESP-00 LC50 ([3]; nymphs in 2nd stage, multi-resistant strain ESP-00, mortality 10-12 d) [ppm]	ESP-00 LC50 [2] [ppm]	SUD-S LC50 [4] [ppm]	Resistenz / Kreuz-resistenz von adulten B. tabaci Tieren des Stamms ESP-00 im Vergleich zu SUD-S ([2]; leaf-dip, result in words)
CC(C)N1C(=O)N(c2ccccc2)CS/C1=N\C(C)(C)C [Buprofezin]	0.27	keine akuten Kurzzeiteffekte	starke Kreuzresistenz	260			
CN1COCN(Cc2cnc(Cl)s2)/C1=N\[N+](=O)[O-] [Thiamethoxam]					76	1.1	
CN/C(=N/CC1CCOC1)N[N+](=O)[O-] (centres unmarked) [Dinotefuran]					9.8	0.17	
CC1=NNC(=O)N(/N=C/c2cccnc2)C1 [Pymetrozin]					360	0.49	starke Resistenz

Reference: patent publication EP2198709A1, “Method for treating resistant animal pests” (Bayer CropScience AG, priority 2008, dated 2010)
